System: Escherichia coli strain 1075
Test: Protecting effect in experimental mice infections (E. coli strain 1075)
Type: in vivo
Conditions: sc, 120 h, female albino mice 8 g-24 g, infected intraperitoneally with E. coli strain 1075, treated subcutaneously, survival on 5th day after infection, highest dosage tested usually 300 mg/kg
Method: Protecting Effect in Experimental Mice Infections:
For a reference's sake, with regard to antimicrobial activity of the typical compound which falls within the category of the compounds of the formula (I) of the present invention, there are illustrated in vivo tests in which active ingredient are the following compounds.
The test compound against in vivo against the species Escherichia coli was tested using female albino mice weighing 8 g-24 g.
The mice were infected by intraperitoneal route with standardized suitable diluted bacterial suspensions of E. coli strain 1075 and then treated subcutaneously with the test compound.
The ED50 (mg/kg) was determined from the numbers of mice surviving on the 5th day after infection. The highest dosage tested was usually 300 mg/kg.

Row | Structure (SMILES) | ED50
1 | CC(O)(CO)C(O)C12NC(=O)C(O)(NC1=O)C(Br)(CBr)CCO2 (centres unmarked) [Compound 2, 5,11-dibromo-5,11-dihydrobicyclomycin] | 60 mg/kg
2 | C=C1CCOC2(C(O)C3(C)COC(C)(C)O3)NC(=O)C1(O)NC2=O (centres unmarked) [Compound 1, 2',3'-O,O-isopropylidenebicyclomycin] | 65 mg/kg
